Among the data in PubChem BioAssay AID588587 (The Scripps Research Institute Molecular Screening Center, 2011) are inhibition values, retold here.

For this test, the system named is Fam108b (Abhd17b) [Mus musculus]. Kind of test: inhibition of membrane-bound mouse Fam108b, SAR follow-up, cell lysate, gel-based competitive ABPP, membrane form, set 2 (AID 588587). The conditions noted are these: Fam108b-overexpressing membrane proteome, FP-Rh, at 20 µM, active compounds read high.

As usually defined, the inhibition is the percentage by which the read-out fell short of the control.

SMILES strings stand for the structures. Activity calls are given as the source filed them.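 How the source made its calls: active means inhibition above 60%; inactive means inhibition at or below 60%.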

Take `CC(C)(C)c1nc2scc(-c3ccccc3)c2c(=O)o1`: the inhibition was 0% (inactive).
Then `O=c1oc(-c2ccccc2F)nc2scc(-c3cccs3)c12`, with 0% (inactive).
